In article PMC11097166, “Imidazole-Derived Alkyl and Aryl Ethers: Synthesis, Characterization, In Vitro Anticancer and Antioxidant Activities, Carbonic Anhydrase I–II Inhibition Properties, and In Silico Studies” (ACS Omega, 2024):
Like-named read-outs stand apart in the source and are kept apart here.

Key:
[1] = biological target: hCA II (Homo sapiens, UniProt P00918); test: CA esterase activity method, hCA II; type: biochemical; conditions: Table S3; also: key: +: active; -: not effect
Source text: (§1) The method used to spectrophotometrically detect the antiepileptic, antiglaucoma, and […] effects of the obtained compounds in vitro is the esterase activity method. This method relies on the esterase activity of CA for the hydrolysis of p-nitrophenyl acetate as a substrate, which is a part of the reaction mechanism involving p-nitrophenol or p-nitrophenolate.

[2] = test system: C6 cell line; test: Annexin V binding assay (flow cytometry) on C6; type: cell-based, rat; conditions: C6, IC50 dose, 24 h
Experimental: (§2) Approximately 5 × 10^5 seeds of each cancer cell were seeded into six-well plates and allowed to adhere overnight. […] Cells harvested after trypsinization were suspended in PBS containing at least 1% FBS. The manufacturer’s instructions were then followed, and the Annexin V and dead cell reagent were mixed with the cells. Afterward, the percentage of dead, viable, early and late apoptotic cells was determined using the muse cell analyzer (Millipore) device.

[3] = test system: C6 rat glial tumor cell line; test: MTT cell viability assay on C6; type: cell-based; conditions: 24 h incubation
Source text: (§3) 96-well plates were used for seeding cells. […] All compounds were run in three repetitions.

[4] = test system: HT29 colon cancer cell line; test: MTT cell viability assay on HT29; type: cell-based, human
Source text: as §3

[5] = biological target: hCA I (Homo sapiens, UniProt P00915); test: CA esterase activity method, hCA I; type: biochemical; conditions: Table S3; also: key: +: active; -: not effect
Source text: as §1

[6] = FRAP antioxidant assay; conditions: trolox standard curve
Experimental: The FRAP method was used to determine the antioxidant power of compounds. This method, which determines the reducing power of compounds, was developed by Benzie and Strain.[48] Fe(III)–TPTZ complex is formed as a result of the reaction of Fe(III) with tripyridyltriazine (TPTZ), and this complex is reduced to the Fe(II)–TPTZ complex with the antioxidant in the environment. The color of this complex is dark blue and gives the maximum absorbance at 593 nm.[48] Incubation is performed for up to 30 min to complete the reaction, and the correct absorbance values were read. The FRAP values of the samples were calculated as “μmol trolox equiv/g sample” with the help of the standard curve obtained using methanol–trolox standard solutions (0; 0.2; 0.4; 0.6; 0.8; and 1.0 μmol/mL) which were used as the positive control.[49] […]

[7] = test system: L929 healthy mouse fibroblast cells; test: Annexin V binding assay (flow cytometry) on L929; type: cell-based; conditions: L929, IC50 dose of the compound for the cancer cell line, 24 h
Experimental: as §2

[8] = test system: MCF7 human breast adenocarcinoma cell line; test: MTT cell viability assay on MCF7; type: cell-based
Source text: as §3

[9] = test system: C6 cell line; test: Cell cycle (DNA content) assay on C6; type: cell-based, rat; conditions: glioblastoma (C6), IC50 dose
Experimental: (§4) DNA content (cell cycle) analyses were performed with the MUSE flow cytometry device. When the IC50 results obtained were evaluated, compounds 3a and 3b caused selective toxicity in the HT29 and C6 cancer cell lines compared to L929, respectively. Therefore, the main pathways of compounds 3a and 3b in cells were determined with the MUSE (cell cycle) kit.

[10] = MTT cell viability assay on L929; conditions: mouse, L929 fibroblast cells
Experimental: (§5) Human breast adenocarcinoma cell line (MCF7), rat glial tumor cell line (C6), healthy mouse fibroblast cell line (L929), and colon cancer (HT29) cell line were purchased from ATCC (American type culture collection) and studied.
(§6) The cytotoxic effects of all compounds by MTT analysis on L929, HT29, MCF7, and C6 cell lines were investigated. 96-well plates were used for seeding cells. Approximately 1 × 10^4 cells were seeded in each well. Cells were allowed to adhere for 24 h, and then the compounds were applied at different concentrations. All compounds were run in three repetitions. Wells with a maximum of 100 μM compounds were incubated for 24 h. Three wells without compounds treated with only DMSO (with total volume of % 0.5) were used as negative controls, and cisplatin was used as a positive control. […] After the MTT interaction, the FRAP wells were emptied, and DMSO solution was placed in them. The formazan crystals formed were dissolved with this solution, and the number of viable cells in each well was determined by color change.

[11] = test system: L929 mouse fibroblast cell line; test: MTT cell viability assay on L929; conditions: for toxicity in L929 healthy cell line: 100 μM, 24 h, triplicate; for IC50: read-out: IC50 L929
Experimental: as §5, §6

[12] = test system: HT29 cell line; test: Cell cycle (DNA content) assay on HT29; type: cell-based, human; conditions: colon cancer (HT29), IC50 dose
Experimental: as §4

[13] = test system: HT29 cell line; test: Annexin V binding assay (flow cytometry) on HT29; type: cell-based, human; conditions: HT29, IC50 dose, 24 h
Experimental: as §2

[14] = test system: L929 mouse fibroblast cell line
Experimental: as §5, §6

[15] = Homo sapiens, HT-29, 24 h incubation
[16] = Homo sapiens, MCF7, 24 h incubation

hCA I, sequence (P00915 whole entry): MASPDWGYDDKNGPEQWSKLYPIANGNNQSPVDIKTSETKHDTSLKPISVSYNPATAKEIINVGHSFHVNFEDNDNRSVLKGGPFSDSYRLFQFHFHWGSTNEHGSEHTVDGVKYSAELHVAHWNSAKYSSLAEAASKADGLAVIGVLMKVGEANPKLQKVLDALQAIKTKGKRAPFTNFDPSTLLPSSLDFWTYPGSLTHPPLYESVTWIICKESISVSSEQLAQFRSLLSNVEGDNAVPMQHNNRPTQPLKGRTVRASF

## O=C(Cn1ccnc1)c1ccc(Cl)cc1 [Compound 3b, 1-(4-Chlorophenyl)-2-(1H-imidazol-1-yl)ethanone]
[1]
  Effect on hCA II isoenzyme activity: -
[2]
  Apoptosis profile: Early Apop.: 14.96%
  Apoptosis profile: Late Apop./Dead: 18.33%
  Apoptosis profile: Live: 65.46%
[3]
  IC50: 10.7 ± 0.38 µM
[3]; Rattus norvegicus, 24 h
  IC50: 10.7 ± 0.38 µM
[4]; [15]
  IC50: 59.6 ± 5.73 µM
[5]
  Effect on hCA I isoenzyme activity: -
[6]
  FRAP: 0.20 ± 0.04 μmol trolox equiv/g
[7]
  Apoptosis profile: Live: 99.17%
[8]; [16]
  IC50: 117 ± 14.5 µM
[9]
  phase in which the cell cycle stopped: G0/G1 phase
[10]
  viability at 24 h, 100 μM: ≥ 50%
[11]; MTT
  toxicity in L929 healthy cell line: not toxic
[11]; Mus musculus, L929, 24 h
  IC50: 138 ± 4.06 µM

## O=C(Cn1ccnc1)c1ccccc1 [Compound 3a, 2-(1H-Imidazol-1-yl)-1-phenylethanone]
[1]
  Effect on hCA II isoenzyme activity: -
[3]; Rattus norvegicus, 24 h
  IC50: 15.76 ± 0.08 µM
[4]; [15]
  IC50: 20.9 ± 1.02 µM
[5]
  Effect on hCA I isoenzyme activity: -
[6]
  FRAP: 0.18 ± 0.07 μmol trolox equiv/g
[12]
  phase in which the cell cycle stopped: G0/G1 phase
[7]
  Apoptosis profile: Live: 98.37%
[13]
  Apoptosis profile: Early Apop.: 7.83%
  Apoptosis profile: Late Apop./Dead: 22.56%
  Apoptosis profile: Live: 60.77%
[8]; [16]
  IC50: 161 ± 15.5 µM
[10]
  viability at 24 h, 100 μM: ≥ 50%
[11]; MTT
  toxicity in L929 healthy cell line: not toxic
[11]; Mus musculus, L929, 24 h
  IC50: 174 ± 10.1 µM

## 2-(1H-Imidazol-1-yl)-1-(4-methoxyphenyl)ethenol [Compound 4c]
[1]
  Effect on hCA II isoenzyme activity: +
[3]
  IC50: 43.8 ± 5.83 µM
[14]
  viability on healthy cell line at maximum dose: at least 50%
[4]; 24 h incubation
  IC50: 88.4 ± 15.7 µM
[5]
  Effect on hCA I isoenzyme activity: +
[6]
  FRAP: 0.29 ± 0.05 μmol trolox equiv/g
[8]; 24 h incubation
  IC50: 101 ± 14.5 µM
[11]; 24 h incubation, MTT
  IC50: 194 ± 12.2 µM
